Measured values taken from ChEMBL document CHEMBL6182888, “Design, synthesis, and biological activity study of 6,7-dimethoxy-1,2,3,4-tetrahydroisoquinoline derivatives against multidrug resistance in Eca109/VCR cells” (Eur J Med Chem, 2025).

Legend:
[1] = tested on: Eca-109/VCR; assay: Cytotoxicity against human Eca-109/VCR cells assessed as reduction in cell viability at 5.0 uM incubated for 48 hrs by CCK-8 assay relative to control; assay type: functional
[2] = Reversal fold, ratio of vincristine IC50 to vincristine IC50 in presence of test compound for reversal of drug resistance in human Eca-109/VCR cells at 5 uM incubated for 48 hrs by CCK-8 assay; assay type: functional

| Structure (SMILES) | Cell viability (% of control) [1] | Ratio IC50 [2] |
| --- | --- | --- |
| COc1cc2c(cc1OC)C(Cc1ccc(OCC3CCC3)c(OC)c1)N(C)CC2 (centres undefined) | 107.9% | 188.7 |
| COc1cc2c(cc1OC)C(Cc1ccc(OC)c(OS(=O)(=O)c3ccc4ccccc4c3)c1)N(C)CC2 (centres undefined) | 94.7% | 340.5 |
| COc1cc2c(cc1OC)C(Cc1ccc(OC)c(OCCc3ccccc3)c1)N(C)CC2 (centres undefined) | 102.4% | 12.3 |
| COc1cc2c(cc1OC)C(Cc1ccc(OS(=O)(=O)c3ccc(C#N)cc3)c(OC)c1)N(C)CC2 (centres undefined) | 99.9% | 168.5 |
| COc1cc2c(cc1OC)C(Cc1ccc(OC)c(OS(=O)(=O)c3ccc(C(F)(F)F)cc3)c1)N(C)CC2 (centres undefined) | 100.5% | 371.9 |
| COc1cc2c(cc1OC)C(Cc1ccc(OS(=O)(=O)c3ccc4ccccc4c3)c(OC)c1)N(C)CC2 (centres undefined) | 84.7% | 362.1 |
| CCOCCOCCOc1cc(CC2c3cc(OC)c(OC)cc3CCN2C)ccc1OC (centres undefined) | 103.1% | 2.2 |
| COc1cc2c(cc1OC)C(Cc1ccc(OS(=O)(=O)c3ccc(C(F)(F)F)cc3)c(OC)c1)N(C)CC2 (centres undefined) | 90.4% | 307.4 |
| COc1cc2c(cc1OC)C(Cc1ccc(OC)c(OC(=O)c3ccc4ccccc4c3)c1)N(C)CC2 (centres undefined) | 101.1% | 107.9 |
| COC(=O)c1sccc1S(=O)(=O)Oc1cc(CC2c3cc(OC)c(OC)cc3CCN2C)ccc1OC (centres undefined) | 100.7% | 12.3 |
| COc1cc2c(cc1OC)C(Cc1ccc(OC)c(OS(=O)(=O)Cc3ccccc3)c1)N(C)CC2 (centres undefined) | 101.5% | 180 |
| COc1cc2c(cc1OC)C(Cc1ccc(OS(=O)(=O)c3ccc([N+](=O)[O-])cc3)c(OC)c1)N(C)CC2 (centres undefined) | 105.6% | 172.2 |
| COc1cc2c(cc1OC)C(Cc1ccc(OCCc3ccccc3)c(OC)c1)N(C)CC2 (centres undefined) | 104.2% | 1.8 |
| COc1cc2c(cc1OC)C(Cc1ccc(OC)c(OCC3CCC3)c1)N(C)CC2 (centres undefined) | 102.7% | 122.6 |
| COc1cc2c(cc1OC)C(Cc1ccc(OC)c(Oc3ccc([N+](=O)[O-])cc3)c1)N(C)CC2 (centres undefined) | 100.4% | 53.2 |
| COc1cc2c(cc1OC)C(Cc1ccc(OCC3CC3)c(OC)c1)N(C)CC2 (centres undefined) | 104.2% | 1.5 |
| COc1cc2c(cc1OC)C(Cc1ccc(OCCC(C)C)c(OC)c1)N(C)CC2 (centres undefined) | 105.5% | 227.1 |
| CCOCCOCCOc1ccc(CC2c3cc(OC)c(OC)cc3CCN2C)cc1OC (centres undefined) | 103.6% | 8.5 |
| COc1cc2c(cc1OC)C(Cc1ccc(OC)c(OCC(=O)OC(C)(C)C)c1)N(C)CC2 (centres undefined) | 104.3% | 3.6 |
| COc1cc2c(cc1OC)C(Cc1ccc(OC)c(OCC3CC3)c1)N(C)CC2 (centres undefined) | 105.6% | 6.3 |
| COc1cc2c(cc1OC)C(Cc1ccc(OC)c(OC(=O)C3CCCCC3)c1)N(C)CC2 (centres undefined) | 103.6% | 4.5 |
| COc1cc2c(cc1OC)C(Cc1ccc(OCc3ccc(Cl)cc3Cl)c(OC)c1)N(C)CC2 (centres undefined) | 92.4% | 307.6 |
